Results: patent US4962096A, “Heterocyclic glycerol derivatives and their use as anti-hypertensive agents” (Nippon Chemiphar Co., Ltd., priority 1987, dated 1990)
pEC50: −log10 of the molar value.

Tests used:
[1] = test system: PAF-induced platelet aggregation; test: Inhibitory effect on PAF-induced platelet aggregation; format: cell-based; conditions: rabbit PRP; PAF 1×10^-8 M, test concentration not readable
Procedure: In the same manner as above, a platelet rich plasma (PRP) and a platelet poor plasma (PPP) were prepared for performing the following experiment.
(§1) PRP was diluted with PPP to give a sample containing platelets at 300,000/mm^3.
10 μl of a test solution was added to 180 μl of PRP. To the resulting mixture was added 10 μl of a solution of a commercially available PAF (No.P-4904, available from Sigma Corp.) to give a concentration of 1×10^-8 M, and aggregation was observed. For the preparation of the test solution and the PAF solution, a saline solution containing 0.25% bovine serum albumin was employed.
The effect of the test sample for suppressing aggregation was obtained in terms of a degree of suppression of the maximum aggregation in the control PRP caused by the PAF.

[2] = test system: platelet; test: Platelet aggregation action in platelet rich plasma; format: cell-based; conditions: rabbit PRP, 300,000 platelets/mm^3, final concentration 2×10^-10 to 2×10^-4 M, unit inferred
Procedure: A male Japanese white rabbit was anesthetized by pentobarbital, and a blood was collected in aqueous 3.13% sodium citrate solution at its carotid. The blood containing 1/10 volume ratio of the sodium citrate solution was treated in a conventional manner to give a platelet rich plasma (PRP) and a platelet poor plasma (PPP) for performing the following experiment.
as §1
Aggregation of platelet was determined by means of Platelet Aggregation Tracer PAT-4A(available from Niko Bioscience Co., Ltd., Japan). 10 μl of a test solution was added to 190 μl of PRP to give a final concentration of 2×10^-10 to 2×10^-4 M, and an aggregation curve is recorded. For the preparation of the test solution, a saline solution containing 0.25% bovine serum albumin.
According to the aggregation curve obtained for each of the following compound of the present invention, following EC50 value was obtained.

[3] = test system: Male Wistar rats; test: Blood pressure reducing action: intravenous injection (MABP50); format: in vivo, rat; conditions: anesthetized male Wistar rats, injection in saline with 0.25% bovine serum albumin, from dose-response curve; for ED (50 mmHg): Rattus norvegicus, iv, read-out: MABP50 (dose required for reducing a mean blood pressure by 50 mmHg)
Procedure: Male Wistar rats (mean body weight: 420 g) were anesthetized by intraperitoneal injection of 50 mg/kg of pentobarbital sodium, and their blood pressures were measured at left femoral artery. Subsequently, a compound to be tested was dissolved in a saline solution containing 0.25% bovine serum albumin and injected into the rat through the right femoral artery.
A dose-response curve was prepared from the obtained values for each of the following compounds of the present invention to determine a dose required for reducing a mean blood pressure by 50 mmHg (MABP50).

[4] = test system: Male spontaneously hypertensive rats; test: Blood pressure reducing action: oral administration; format: in vivo, rat
Procedure: Male spontaneously hypertensive rats (average body weight: 359 g) were anesthetized with ether. Blood pressure was measured for each rat through cannulation at its left femoral artery. A compound to be tested was dissolved in a distilled water and the resulting aqueous solution was administered orally.

[5] = Oryctolagus cuniculus, Platelet

Compound | pEC50 [2, 5] | ED (50 mmHg) [3] [µg/kg] | also measured
CCCCCCCCCCCCCCCCOC(C)C(COP(=O)([O-])OC(c1ccccc1)C1CCC[N+]1(C)C)OCc1ccccc1 (stereo not drawn) [I, 2-Benzyloxy-3-hexadecyloxybutyl erythro-1,1-dimethylpyrrolidinio-2-ylphenylmethyl phosphate] | – | – | degree of suppression of the maximum aggregation caused by the PAF [1]: 100%
CCCCCCCCCCCCCCCCOCC(COP(=O)([O-])OCC1CCC[N+](C)(C)C1)OC(C)=O (stereo not drawn) [F, 2-acetyloxy-3-hexadecyloxypropyl 1,1-dimethylpiperidinio-3-ylmethyl phosphate] | 8.82 | 0.058 | –
CCCCCCCCCCCCCCCCOCC(COP(=O)([O-])OCC1Cc2ccccc2C[N+]1(C)C)OC(C)=O (stereo not drawn) [O, 2-acetyloxy-3-hexadecyloxypropyl 2,2-dimethyl-1,2,3,4-tetrahydroisoquinolinio-3-ylmethyl phosphate] | 6.74 | 3.2 | –
CCCCCCCCCCCCCCCCOCC(COP(=O)([O-])OCCc1ccc[n+](C)c1)OC(C)=O (stereo not drawn) [U, 2-acetyloxy-3-hexadecyloxypropyl 1-methylpyridinio-3-ylethyl phosphate] | – | – | pEC50 [2]: 7.07; MABP50 (dose required for reducing a mean blood pressure by 50 mmHg) [3]: 0.195 µg/kg
CCCCCCCCCCCCCCCCOCC(COP(=O)([O-])OC(c1ccccc1)C1CCC[N+]1(C)C)OCc1ccccc1 (stereo not drawn) [K, 2-Benzyloxy-3-hexadecyloxypropyl threo-1,1-dimethylpyrrolidinio-2-ylphenylmethyl phosphate] | – | – | degree of suppression of the maximum aggregation caused by the PAF [1]: 73%
CCCCCCCCCCCCCCCCOCC(COP(=O)([O-])OCCC1CCC[N+]1(C)C)OC(C)=O (stereo not drawn) [H, 2-acetyloxy-3-hexadecyloxypropyl 2-(1,1-dimethylpyrrolidinio-2-yl)ethylphosphate] | 8.62 | 0.058 | –
CCCCCCCCCCCCCCCCOCC(COP(=O)([O-])OCC1CC[N+](C)(C)CC1)OC(C)=O (stereo not drawn) [G, 2-acetyloxy-3-hexadecyloxypropyl 1,1-dimethylpiperidinio-4-ylmethyl phosphate] | 7.05 | 0.97 | –
CCCCCCCCCCCCCCCCOCC(COP(=O)([O-])OC1C[N+]2(C)CCC1CC2)OC(C)=O (stereo not drawn) [A, 2-acetyloxy-3-hexadecyloxypropyl 1-methyl-1-azoniabicyclo[2,2,2]-3-octyl phosphate] | 9.12 | 0.005 | –
CCCCCCCCCCCCCCCCOCC(COP(=O)([O-])OCCc1sc[n+](C)c1C)OC(C)=O (stereo not drawn) [T, 2-acetyloxy-3-hexadecyloxypropyl 3,4-dimethylthiazolio-5-ylethyl phosphate] | 8.49 | 0.00023 | Change of Blood Pressure About 30 min. after Administration ([4]; 10 mg/kg): -35.3 mmHg
CCCCCCCCCCCCCCCCOCC(COP(=O)([O-])OCC1CCc2ccccc2[N+]1(C)C)OC(C)=O (stereo not drawn) [P, 2-acetyloxy-3-hexadecyloxypropyl 1,1-dimethyl-1,2,3,4-tetrahydroquinolinio-2-ylmethyl phosphate] | 7.30 | 0.11 | –
CCCCCCCCCCCCCCCCOCC(COP(=O)([O-])OCC1=CCC[N+](C)(C)C1)OC(C)=O (stereo not drawn) [R, 2-acetyloxy-3-hexadecyloxypropyl 1,1-dimethyl-1,2,5,6-tetrahydropyridinio-3-ylmethyl phosphate] | – | 0.024 | –
CCCCCCCCCCCCCCCCOC(C)C(COP(=O)([O-])OCCc1sc[n+](C)c1C)OC(C)=O (stereo not drawn) [W, 2-acetyloxy-3-hexadecyloxybutyl 3,4-dimethylthiazolio-5-ylethyl phosphate] | 7.14 | 0.067 | Change of Blood Pressure About 30 min. after Administration ([4]; 1 mg/kg): -36.0 mmHg
CCCCCCCCCCCCCCCCOCC(COP(=O)([O-])OC(c1ccccc1)C1CCC[N+]1(C)C)OCc1ccccc1 (stereo not drawn) [J, 2-Benzyloxy-3-hexadecyloxypropyl erythro-1,1-dimethylpyrrolidinio-2-ylphenylmethyl phosphate] | – | – | degree of suppression of the maximum aggregation caused by the PAF [1]: 99%
CCCCCCCCCCCCCCCCOCC(COP(=O)([O-])OC1CC2CCC(C1)[N+]2(C)C)OC(C)=O (stereo not drawn) [B, 2-acetyloxy-3-hexadecyloxypropyl endo-8,8-dimethyl-8-azoniabicyclo[3,2,1]-3-octyl phosphate] | 8.64 | 0.12 | –
2-Acetyloxy-3-hexadecyloxypropyl 1-(1-fluorophenyl)-2-methylisoquinolinio-3-ylmethyl phosphate | – | – | degree of suppression of the maximum aggregation caused by the PAF [1]: 100%
CCCCCCCCCCCCCCCCOCC(COP(=O)([O-])OCC1CSC(c2ccccc2)[N+]1(C)C)OC(C)=O (single isomer, unassigned) [S(Product A), 2-acetyloxy-3-hexadecyloxypropyl 3,3-dimethyl-2-phenyl-1,3-thiazolidinio-4-ylmethyl phosphate] | 6.17 | – | MABP50 (dose required for reducing a mean blood pressure by 50 mmHg) [3]: 0.16 µg/kg
CCCCCCCCCCCCCCCCOCC(COP(=O)([O-])OCC1CCCC[N+]1(C)C)OCc1ccccc1 (stereo not drawn) [L, 2-Benzyloxy-3-hexadecyloxypropyl 1,1-dimethylpiperidinio-2-ylmethyl phosphate] | – | – | degree of suppression of the maximum aggregation caused by the PAF [1]: 55%
CCCCCCCCCCCCCCCCOCC(COP(=O)([O-])OCC1CSC[N+]1(C)C)OC(C)=O (stereo not drawn) [Q, 2-acetyloxy-3-hexadecyloxypropyl 3,3-dimethyl-1,3-thiazolidinio-4-ylmethyl phosphate] | 9.28 | 0.032 | –
CCCCCCCCCCCCCCCCOCC(COP(=O)([O-])OCC1CCC[N+]1(C)C)OC(C)=O (stereo not drawn) [D, 2-acetyloxy-3-hexadecyloxypropyl 1,1-dimethylpyrrolidinio-2-ylmethyl phosphate] | 9.30 | 0.024 | –
CCCCCCCCCCCCCCCCOC(C)C(COP(=O)([O-])OCC1=CCC[N+](C)(C)C1)OC(C)=O (stereo not drawn) [V, 2-acetyloxy-3-hexadecyloxybutyl 1,1-dimethyl-1,2,5,6-tetrahydropyridinio-3-ylmethyl phosphate] | 7.11 | 0.64 | Change of Blood Pressure About 30 min. after Administration ([4]; 3 mg/kg): -49.0 mmHg
CCCCCCCCCCCCCCCCOCC(COP(=O)([O-])OCC1CSC(c2ccccc2)[N+]1(C)C)OC(C)=O (single isomer, unassigned) [S(Product B), 2-acetyloxy-3-hexadecyloxypropyl 3,3-dimethyl-2-phenyl-1,3-thiazolidinio-4-ylmethyl phosphate] | – | – | pEC50 [2]: 6.13; MABP50 (dose required for reducing a mean blood pressure by 50 mmHg) [3]: 0.35 µg/kg
CCCCCCCCCCCCCCCCOCC(COP(=O)([O-])OC(c1ccccc1)C1CCC[N+]1(C)C)OC(C)=O (stereo not drawn) [M, 2-Acetyloxy-3-hexadecyloxypropyl erythro-1,1-dimethylpyrrolidinio-2-ylphenylmethyl phosphate] | – | – | degree of suppression of the maximum aggregation caused by the PAF [1]: 100%
CCCCCCCCCCCCCCCCOCC(COP(=O)([O-])OCC1CCCC[N+]1(C)C)OC(C)=O (stereo not drawn) [Compound E, 2-acetyloxy-3-hexadecyloxypropyl 1,1-dimethylpiperidinio-2-ylmethyl phosphate] | 8.00 | 0.132 | –
CCCCCCCCCCCCCCCCOC(C)C(COP(=O)([O-])OC1C[N+]2(C)CCC1CC2)OC(C)=O (stereo not drawn) [C, 2-acetyloxy-3-hexadecyloxybutyl 1-methyl-1-azoniabicyclo[2,2,2]-3-octylphosphate] | 8.28 | 0.099 | Change of Blood Pressure About 30 min. after Administration ([4]; 3 mg/kg): -64.5 mmHg
